Reference: patent publication US20080009418A1, “Selective Inhibitors” (Alchemia LTD., priority 2004, published 2008)

Assays:
[1] = target: T1, Human neuropeptide Y (NPY-Y1) (Homo sapiens, UniProt P25929); assay: Radioligand binding, human neuropeptide Y NPY-Y1 membranes, FlashPlate, [125I]-PYY; details: compound at 10 μM; for A9 radioligand binding, percentage inhibition: [125I]-PYY
T1 construct: purchased Perkin Elmer Biosignal
T1 sequence (P25929 1-384): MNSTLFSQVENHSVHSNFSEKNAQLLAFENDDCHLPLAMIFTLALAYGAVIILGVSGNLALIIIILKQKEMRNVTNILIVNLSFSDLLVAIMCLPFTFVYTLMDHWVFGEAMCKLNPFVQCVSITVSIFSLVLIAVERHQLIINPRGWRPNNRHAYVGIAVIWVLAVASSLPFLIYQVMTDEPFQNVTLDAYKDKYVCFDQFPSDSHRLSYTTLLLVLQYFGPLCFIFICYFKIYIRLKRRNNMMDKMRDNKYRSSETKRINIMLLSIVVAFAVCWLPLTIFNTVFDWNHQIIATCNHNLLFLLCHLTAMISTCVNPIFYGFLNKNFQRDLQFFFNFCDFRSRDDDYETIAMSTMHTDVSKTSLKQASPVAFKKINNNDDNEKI
Method: (§1) Cloned receptor membrane preparations from Perkin Elmer Biosignal™ were used in radioligand binding assays.
(§2) A1 Human δ-opioid (DOP), A2 Human κ-Opioid (KOP), A3 Human Melanocortin (MC3), A4 Human Melanocortin (MC4), A5 Human melanocortin (MC5), A6 Human melanin-concentrating hormone (MCH1), A7 Human μ-opioid (MOP), A8 Human neurokinin (NK1), A9 Human neuropeptide Y (NPY-Y1), A10 Human opioid (ORL1) A11 Mouse urotensin (mUR2)
(§3) Screening experiments were performed in either a 50 μl filtration or 25 μl FlashPlate assay format using the following protocol:
(§4) 19.5 μl buffer, 0.5 μl of compound diluted in DMSO, 5 μl of radioligand diluted in binding buffer.
(§5) The day prior to performing the experiment 50 μl DMSO was added to each well of the compound plates to yield compounds at a final concentration of 10 mM. Daughter plates were then created by diluting the compounds further in DMSO to a concentration of 0.5 mM. The mother plates were frozen immediately.
(§6) Immobilize membranes into FlashPlate microplates using PerkinElmer BioSignal's proprietary coating procedure. Dilute radioligand to 5× the final concentration in binding buffer. Add 19.5 μl buffer to each well of the FlashPlate. Add 0.5 μl of DMSO (total value, 5 wells), reference ligand (non-specific value, 3 wells) or compound to the corresponding wells in the FlashPlate microplate. Initiate the reaction by adding 5 μl of radioligand to each well. Apply TopSeal-A onto FlashPlate microplates. Incubate at room temperature for 1 hour in the dark. Count for 30 seconds per well on TopCount Microplate Scintillation and Luminescence Counter (PerkinElmer) using a count delay of 60 seconds.
(§7) Percentage inhibition was calculated using the following formula: [formula]

Mouse urotensin (mUR2) = target: T2, Mouse urotensin (mUR2) (Mus musculus, UniProt Q8VIH9); assay: Radioligand binding, mouse urotensin mUR2 membranes, FlashPlate, [125I]-Urotensin II; details: compound at 10 μM; for A11 radioligand binding, percentage inhibition: [125I]-Urotensin II
T2 construct: purchased Perkin Elmer Biosignal
T2 sequence (Q8VIH9 1-385): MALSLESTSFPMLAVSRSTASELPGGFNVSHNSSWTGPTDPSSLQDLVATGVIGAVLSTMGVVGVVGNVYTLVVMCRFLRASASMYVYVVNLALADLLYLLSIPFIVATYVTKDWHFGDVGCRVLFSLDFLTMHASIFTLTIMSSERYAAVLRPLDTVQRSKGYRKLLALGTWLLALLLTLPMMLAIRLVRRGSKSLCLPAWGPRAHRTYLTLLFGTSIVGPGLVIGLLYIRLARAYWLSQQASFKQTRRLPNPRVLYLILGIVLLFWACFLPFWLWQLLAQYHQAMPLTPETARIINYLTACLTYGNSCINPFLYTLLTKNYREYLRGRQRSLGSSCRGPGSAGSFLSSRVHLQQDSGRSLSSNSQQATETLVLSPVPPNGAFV
Method: as §1, §2, §3, §4, §5, §6, §7

Human κ-Opioid (KOP) = target: T3, Human κ-Opioid (KOP) (Homo sapiens, UniProt P41145); assay: Radioligand binding, human κ-opioid (KOP) membranes, filtration, [3H]-Diprenorphine; details: compound at 10 μM; for A2 radioligand binding, percentage inhibition: [3H]-Diprenorphine
T3 construct: purchased Perkin Elmer Biosignal
Method: as §1, §2, §3
(§8) 44 μl membranes diluted in buffer, 1 μl of compound diluted in DMSO, 5 μl of radioligand diluted in binding buffer.
as §5
(§9) Thaw membranes on ice then dilute membranes in binding buffer at a concentration of 1 Unit per well. Dilute radio-ligand to 10 times the final concentration in binding buffer. Add 44 μl of diluted membranes to each well of the deep-well plate. Add 1 μl of DMSO (total value, 5 wells), reference ligand (non-specific value, 3 wells) or compound to the corresponding wells in the deep-well plate. Initiate the reaction by adding 5 μl of radioligand to each well and vortex gently. Incubate at room temperature for 1 hour. During incubation, pre-incubate the Multiscreen Harvest plates in 0.3% PEI. Filter over pre-soaked Multiscreen Harvest plates using a Tomtec Harvester. Wash 9 times with 500 μl of cold 50 mM Tris-HCl pH 7.4 at 4° C. and air-dry for 30 minutes at room temperature under a fume hood. Apply a bottom seal to the Multiscreen Harvest plates. Add 25 μl of MicroScint-0 to each well. Apply TopSeal-A to the plate. Count for 30 seconds per well on TopCount Microplate Scintillation and Luminescence Counter (PerkinElmer) using a count delay of 60 seconds.
as §7

Human Melanocortin (MC4) = target: T4, Human Melanocortin (MC4) (Homo sapiens, UniProt P32245); assay: Radioligand binding, human melanocortin MC4 membranes, FlashPlate, [125I]-NDP-αMSH; details: compound at 10 μM; for A4 radioligand binding, percentage inhibition: [125I]-NDP-αMSH
T4 construct: purchased Perkin Elmer Biosignal
Method: as §1, §2, §3, §4, §5, §6, §7

Human δ-opioid (DOP) = target: T5, Human δ-opioid (DOP) (Homo sapiens, UniProt P41143); assay: Radioligand binding, human δ-opioid (DOP) membranes, FlashPlate, [3H]-Bremazocine; details: compound at 10 μM; for A1 radioligand binding, percentage inhibition: [3H]-Bremazocine
T5 construct: purchased Perkin Elmer Biosignal
Method: as §1, §2, §3, §4, §5, §6, §7

Human neurokinin (NK1) = target: T6, Human neurokinin (NK1) (Homo sapiens, UniProt P25103); assay: Radioligand binding, human neurokinin NK1 membranes, filtration, [125I]-Substance P; details: compound at 10 μM; for A8 radioligand binding, percentage inhibition: [125I]-Substance P
T6 construct: purchased Perkin Elmer Biosignal
Method: as §1, §2, §3, §8, §5, §9, §7

Human opioid (ORL1) = target: T7, Human opioid (ORL1) (Homo sapiens, UniProt P41146); assay: Radioligand binding, human opioid ORL1 membranes, FlashPlate, [125I]-Nociceptin; details: compound at 10 μM; for A10 radioligand binding, percentage inhibition: [125I]-Nociceptin
T7 construct: purchased Perkin Elmer Biosignal
Method: as §1, §2, §3, §4, §5, §6, §7

Human μ-opioid (MOP) = target: T8, Human μ-opioid (MOP) (Homo sapiens, UniProt P35372); assay: Radioligand binding, human μ-opioid (MOP) membranes, FlashPlate, [3H]-Naloxone; details: compound at 10 μM
T8 construct: purchased Perkin Elmer Biosignal
Method: as §1, §2, §3, §4, §5, §6, §7

Human Melanocortin (MC3) = target: T9, Human Melanocortin (MC3) (Homo sapiens, UniProt P41968); assay: Radioligand binding, human melanocortin MC3 membranes, FlashPlate, [125I]-NDP-αMSH; details: compound at 10 μM; for A3 radioligand binding, percentage inhibition: [125I]-NDP-αMSH
T9 construct: purchased Perkin Elmer Biosignal
Method: as §1, §2, §3, §4, §5, §6, §7

[2] = target: T10, Human melanin-concentrating hormone (MCH1) (Homo sapiens, UniProt Q99705); assay: Radioligand binding, human melanin-concentrating hormone MCH1 membranes, FlashPlate, [125I]-S36057; details: compound at 10 μM; for A6 radioligand binding, percentage inhibition: [125I]-S36057
T10 construct: purchased Perkin Elmer Biosignal
Method: as §1, §2, §3, §4, §5, §6, §7

Human melanocortin (MC5) = target: T11, Human melanocortin (MC5) (Homo sapiens, UniProt P33032); assay: Radioligand binding, human melanocortin MC5 membranes, FlashPlate, [125I]-NDP-αMSH; details: compound at 10 μM; for A5 radioligand binding, percentage inhibition: [125I]-NDP-αMSH
T11 construct: purchased Perkin Elmer Biosignal
Method: as §1, §2, §3, §4, §5, §6, §7

T10 sequence (Q99705 whole entry): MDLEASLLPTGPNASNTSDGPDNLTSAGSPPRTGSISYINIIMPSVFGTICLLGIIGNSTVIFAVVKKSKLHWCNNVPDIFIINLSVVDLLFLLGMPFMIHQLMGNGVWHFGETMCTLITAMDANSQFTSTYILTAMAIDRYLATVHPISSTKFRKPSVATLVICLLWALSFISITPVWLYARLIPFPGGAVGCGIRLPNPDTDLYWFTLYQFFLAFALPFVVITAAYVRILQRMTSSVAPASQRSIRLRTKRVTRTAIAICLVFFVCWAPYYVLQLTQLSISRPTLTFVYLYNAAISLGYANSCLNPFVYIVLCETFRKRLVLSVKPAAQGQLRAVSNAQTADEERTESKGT
T3 sequence (P41145 whole entry): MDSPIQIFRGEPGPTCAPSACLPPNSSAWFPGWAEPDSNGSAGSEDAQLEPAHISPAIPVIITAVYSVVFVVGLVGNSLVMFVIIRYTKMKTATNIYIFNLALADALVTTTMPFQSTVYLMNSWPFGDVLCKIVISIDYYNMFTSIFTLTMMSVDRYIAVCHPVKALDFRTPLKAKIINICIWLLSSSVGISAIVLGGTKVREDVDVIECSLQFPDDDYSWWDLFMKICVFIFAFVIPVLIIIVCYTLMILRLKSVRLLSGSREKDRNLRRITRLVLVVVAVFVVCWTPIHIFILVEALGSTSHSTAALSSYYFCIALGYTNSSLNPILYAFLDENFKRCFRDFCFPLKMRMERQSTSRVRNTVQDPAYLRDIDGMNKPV
T6 sequence (P25103 whole entry): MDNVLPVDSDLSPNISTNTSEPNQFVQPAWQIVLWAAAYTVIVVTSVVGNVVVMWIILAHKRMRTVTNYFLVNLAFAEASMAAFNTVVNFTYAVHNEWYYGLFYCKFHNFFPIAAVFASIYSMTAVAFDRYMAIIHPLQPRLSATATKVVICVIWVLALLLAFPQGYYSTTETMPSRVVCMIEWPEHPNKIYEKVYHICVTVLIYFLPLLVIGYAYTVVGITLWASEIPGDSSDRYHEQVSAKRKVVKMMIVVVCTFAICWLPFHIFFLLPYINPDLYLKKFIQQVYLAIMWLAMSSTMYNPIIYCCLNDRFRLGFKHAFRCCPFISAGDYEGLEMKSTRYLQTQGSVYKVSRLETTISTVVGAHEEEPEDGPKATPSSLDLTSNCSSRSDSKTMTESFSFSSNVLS
T11 sequence (P33032 whole entry): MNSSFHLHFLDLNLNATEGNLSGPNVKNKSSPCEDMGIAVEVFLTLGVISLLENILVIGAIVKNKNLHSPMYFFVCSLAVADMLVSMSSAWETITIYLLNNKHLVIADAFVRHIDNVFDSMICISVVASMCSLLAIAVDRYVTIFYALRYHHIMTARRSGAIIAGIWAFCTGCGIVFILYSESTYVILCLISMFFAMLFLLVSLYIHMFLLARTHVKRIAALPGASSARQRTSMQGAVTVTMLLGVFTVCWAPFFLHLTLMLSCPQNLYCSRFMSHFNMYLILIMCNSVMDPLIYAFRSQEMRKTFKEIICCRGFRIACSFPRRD
T9 sequence (P41968 whole entry): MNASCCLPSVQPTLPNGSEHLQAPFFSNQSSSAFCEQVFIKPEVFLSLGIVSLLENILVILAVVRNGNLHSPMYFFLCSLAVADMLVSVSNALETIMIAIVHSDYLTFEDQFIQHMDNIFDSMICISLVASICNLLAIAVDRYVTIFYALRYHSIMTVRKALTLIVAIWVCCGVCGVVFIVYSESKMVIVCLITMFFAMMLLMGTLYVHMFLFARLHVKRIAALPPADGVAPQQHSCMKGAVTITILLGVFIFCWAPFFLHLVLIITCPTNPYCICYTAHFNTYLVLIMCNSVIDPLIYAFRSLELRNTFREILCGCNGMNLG
T7 sequence (P41146 whole entry): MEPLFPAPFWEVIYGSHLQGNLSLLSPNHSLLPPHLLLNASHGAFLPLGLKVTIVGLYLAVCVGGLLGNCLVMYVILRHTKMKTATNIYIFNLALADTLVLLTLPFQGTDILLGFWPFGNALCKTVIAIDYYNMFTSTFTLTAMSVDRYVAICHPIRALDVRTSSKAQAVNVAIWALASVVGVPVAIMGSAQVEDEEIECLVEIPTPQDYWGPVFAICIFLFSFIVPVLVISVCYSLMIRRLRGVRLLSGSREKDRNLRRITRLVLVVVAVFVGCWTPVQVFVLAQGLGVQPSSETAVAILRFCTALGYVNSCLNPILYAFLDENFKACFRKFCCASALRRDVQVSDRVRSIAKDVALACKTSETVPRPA
T4 sequence (P32245 whole entry): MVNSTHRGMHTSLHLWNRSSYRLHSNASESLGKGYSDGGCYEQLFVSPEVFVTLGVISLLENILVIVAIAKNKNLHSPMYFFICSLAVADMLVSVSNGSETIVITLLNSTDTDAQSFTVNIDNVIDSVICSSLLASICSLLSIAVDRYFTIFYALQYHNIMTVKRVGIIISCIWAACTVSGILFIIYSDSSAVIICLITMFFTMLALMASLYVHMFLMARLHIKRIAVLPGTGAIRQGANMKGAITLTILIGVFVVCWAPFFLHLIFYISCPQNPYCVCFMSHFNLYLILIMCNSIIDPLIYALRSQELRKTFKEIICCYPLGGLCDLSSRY
T5 sequence (P41143 whole entry): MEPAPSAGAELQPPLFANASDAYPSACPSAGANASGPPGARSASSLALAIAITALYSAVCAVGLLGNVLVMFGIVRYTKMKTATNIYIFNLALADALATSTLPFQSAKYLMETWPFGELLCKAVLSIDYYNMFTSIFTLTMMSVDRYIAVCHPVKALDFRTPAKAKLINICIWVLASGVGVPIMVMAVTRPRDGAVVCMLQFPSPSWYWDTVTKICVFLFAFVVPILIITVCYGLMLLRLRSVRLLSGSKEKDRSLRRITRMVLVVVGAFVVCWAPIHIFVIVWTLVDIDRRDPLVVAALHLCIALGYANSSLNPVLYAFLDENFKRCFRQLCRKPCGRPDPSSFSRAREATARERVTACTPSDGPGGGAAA
T8 sequence (P35372 whole entry): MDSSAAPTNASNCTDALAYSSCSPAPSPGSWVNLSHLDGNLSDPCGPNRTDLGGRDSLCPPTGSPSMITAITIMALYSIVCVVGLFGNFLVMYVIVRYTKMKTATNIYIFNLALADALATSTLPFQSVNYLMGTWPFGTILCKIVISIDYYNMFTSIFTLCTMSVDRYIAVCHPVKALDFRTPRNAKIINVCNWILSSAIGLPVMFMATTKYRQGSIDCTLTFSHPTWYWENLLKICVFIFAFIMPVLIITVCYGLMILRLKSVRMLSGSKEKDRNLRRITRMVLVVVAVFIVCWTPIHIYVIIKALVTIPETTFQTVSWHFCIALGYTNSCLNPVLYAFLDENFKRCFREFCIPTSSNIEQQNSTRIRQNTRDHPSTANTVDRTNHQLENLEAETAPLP

SMILES	A9 radioligand binding, percentage inhibition [1]	A11 radioligand binding, percentage inhibition (Mouse urotensin (mUR2))	A2 radioligand binding, percentage inhibition (Human κ-Opioid (KOP))	A4 radioligand binding, percentage inhibition (Human Melanocortin (MC4))	A1 radioligand binding, percentage inhibition (Human δ-opioid (DOP))	A8 radioligand binding, percentage inhibition (Human neurokinin (NK1))	A10 radioligand binding, percentage inhibition (Human opioid (ORL1))	A3 radioligand binding, percentage inhibition (Human Melanocortin (MC3))	A6 radioligand binding, percentage inhibition [2]	A5 radioligand binding, percentage inhibition (Human melanocortin (MC5))	further results
CO[C@H]1[C@H](O)[C@@H](COCc2ccc(-c3ccccc3)cc2)OC(OCc2ccc3ccccc3c2)[C@@H]1NC(=O)CCNC(=N)N (some centres unmarked) [compound 67]	–	–	–	–	–	–	–	–	–	–	A9 radioligand binding inhibition ([1]; human NPY-Y1 membranes): − (“−” indicates less than 50% inhibition at 10 μM); A11 radioligand binding inhibition (Mouse urotensin (mUR2); mouse urotensin mUR2 membranes): − (“−” indicates less than 50% inhibition at 10 μM); A2 radioligand binding inhibition (Human κ-Opioid (KOP); human κ-opioid (KOP) membranes): − (“−” indicates less than 50% inhibition at 10 μM); A4 radioligand binding inhibition (Human Melanocortin (MC4); human melanocortin MC4 membranes): + (“+” indicates greater than 50% inhibition at 10 μM); A1 radioligand binding inhibition (Human δ-opioid (DOP); human δ-opioid (DOP) membranes): + (“+” indicates greater than 50% inhibition at 10 μM); A8 radioligand binding inhibition (Human neurokinin (NK1); human neurokinin NK1 membranes): + (“+” indicates greater than 50% inhibition at 10 μM); A10 radioligand binding inhibition (Human opioid (ORL1); human ORL1 membranes): + (“+” indicates greater than 50% inhibition at 10 μM); A7 radioligand binding inhibition (Human μ-opioid (MOP); human μ-opioid (MOP) membranes): + (“+” indicates greater than 50% inhibition at 10 μM); A3 radioligand binding inhibition (Human Melanocortin (MC3); human melanocortin MC3 membranes): + (“+” indicates greater than 50% inhibition at 10 μM); A6 radioligand binding inhibition ([2]; human MCH1 membranes): + (“+” indicates greater than 50% inhibition at 10 μM); A5 radioligand binding inhibition (Human melanocortin (MC5); human melanocortin MC5 membranes): + (“+” indicates greater than 50% inhibition at 10 μM)
CO[C@H]1[C@H](O)[C@@H](COCc2ccccc2)OC(OCc2ccc(Cl)cc2)[C@@H]1NC(=O)CCCN (some centres unmarked) [compound 103]	− (“−” indicates less than 50% inhibition at 10 μM)	− (“−” indicates less than 50% inhibition at 10 μM)	− (“−” indicates less than 50% inhibition at 10 μM)	− (“−” indicates less than 50% inhibition at 10 μM)	− (“−” indicates less than 50% inhibition at 10 μM)	+ (“+” indicates greater than 50% inhibition at 10 μM)	− (“−” indicates less than 50% inhibition at 10 μM)	− (“−” indicates less than 50% inhibition at 10 μM)	− (“−” indicates less than 50% inhibition at 10 μM)	− (“−” indicates less than 50% inhibition at 10 μM)	A7 radioligand binding, percentage inhibition (Human μ-opioid (MOP); [3H]-Naloxone): − (“−” indicates less than 50% inhibition at 10 μM)
COC[C@H]1OC(OCc2ccc(-c3ccccc3)cc2)[C@H](NC(=O)CCCN)[C@@H](OCc2cccc(O)c2)[C@@H]1O (some centres unmarked) [compound 131]	− (“−” indicates less than 50% inhibition at 10 μM)	− (“−” indicates less than 50% inhibition at 10 μM)	− (“−” indicates less than 50% inhibition at 10 μM)	− (“−” indicates less than 50% inhibition at 10 μM)	− (“−” indicates less than 50% inhibition at 10 μM)	− (“−” indicates less than 50% inhibition at 10 μM)	− (“−” indicates less than 50% inhibition at 10 μM)	− (“−” indicates less than 50% inhibition at 10 μM)	+ (“+” indicates greater than 50% inhibition at 10 μM)	− (“−” indicates less than 50% inhibition at 10 μM)	–
